Test results reported in patent US20040127567A1, “Novel methods for treating disorders in which docosahexaenoic acid (DHA) levels are affected” (Beth Israel Deaconess Medical Center, Inc., priority 1998, published 2004).
Where “and” joins values, the source holds several entries; their conditions need not be identical. Equal entries are not always repeated. Entries after “also recorded” stand apart in the source; their conditions may differ.

Columns and labels:
[1] = tested on: CFTR−/− mice; experiment: Fatty acid levels (GC/MS) in pancreas and lung cells of CFTR−/− mice fed n-3 fatty acids; assay type: in vivo, mouse; conditions: for DHA level in pancreas: CFTR-/- mice, mean ± S.D.; for DHA level in pancreas / Change in phospholipid/membrane-bound AA (in words) / Change in phospholipid/membrane-bound DHA (in words): 40 mg/day for one week (fish oil: dose equivalent to 40 mg DHA, 60 mg EPA, 15 mg LNA); for Change in phospholipid/membrane-bound AA (in words) / Change in phospholipid/membrane-bound DHA (in words): vs Peptamen alone
Description: (§1) Mouse pancreatic acinar and lung cell suspensions were prepared from wild type (n=3) and CFTR−/− mice (n=3) by enzymatic and mechanical dissociation. In addition, brain, kidney, heart, spleen, and blood were sonicated in 0.3M sucrose buffer. Membrane lipids were extracted from cell and organ preparations with 20 volumes of chloroform-methanol 2:1 (v/v), transmethylated with 0.5 mL of 0.1 N methanolic-NaOH/BF3 reagent, and the resulting fatty acid methyl esters analyzed by gas chromatography/mass spectrometry (GC/MS). In a different set of experiments, lipids were fractionated by aminopropyl column chromatography into triglycerides, cholesterol esters, and phosphoglycerides and the fatty acid composition of each lipid class determined by a combination of enzymatic hydrolysis, transmethylation, and GC/MS.
Cystic fibrosis (UNC strain) and wild type mice (12-20 grams body weight) were fed with a complete liquid enteral formulation (Peptamen™, Nestle Clinical Nutrition, Inc.) supplemented with different quantities of the DHA-containing formulation Neuromins (Nature's Way Products Inc., Springville, Utah). DHA content in the Neuromins formulation was 100 mg per 500 mg of formulation. Mice were fed once a day at about 11 a.m., seven days a week with 20 ml of Peptamen™ supplemented with the various amounts of either Neuramins, free DHA (Sigma Chemical Co., MO) or DHA-ethyl ester (Nu-Check-Prep, Inc. MN) ranging from 0.5 mg/day of DHA to 40 mg/day of DHA.
Lung and acinar cells were isolated from a CF mouse fed with DHA formula (mouse-1, 40 mg/day DHA). The pellets (0.5 mL for pancreas cell homogenate and 0.6 mL for lung cell homogenate) were extracted with 3 mL of chloroform-methanol 2:1 (v/v). The resulting emulsion was vortexed, centrifuged at 800 g for 3 min., and the lower phase aspirated. The residual upper phase was partitioned again with 3 mL of chloroform-methanol 2:1 (v/v), the lower phase aspirated and both lower phases combined. Fractions were evaporated to dryness, processed for fatty acid methyl esters (FAME) and were analyzed by GC-MS analysis. Aliquots of 10 μL of 17:0 methyl ester solution in hexane [1 μg/μL] were added to the samples after methylation.
(§2) Lung and acinar cells were isolated from a CF and a wild-type (WT) mouse fed with DHA formula. The pellets (0.5 mL for pancreas cell homogenate and 0.6 mL for lung cell homogenate) were extracted with 3 mL of chloroform-methanol 2:1 (v/v). The resulting emulsion was vortexed, centrifuged at 800 g for 3 min., and the lower phase aspirated. The residual upper phase was partitioned again with 3 mL of chloroform-methanol 2:1 (v/v), the lower phase aspirated and both lower phases combined. Fractions were evaporated to dryness, processed for FAME and analyzed by GC-MS. Aliquots of 20 μL of 17:0 in chloroform-methanol 2:1 (v/v) were added to the samples before methylation.
as §2, with “from” for “from a”, “mice” for “and a wild-type (WT) mouse”, “different doses of DHA, i.e., 0.5 mg/day, 2.0 mg/day, 10 mg/day or 40 mg/day DHA.” for “DHA formula.”, “pellets” for “pellets (0.5 mL for pancreas cell homogenate and 0.6 mL for lung cell homogenate)”, “30” for “20”
CFTR−/− mice were prepared as described in Example 1. Both CFTR−/− mice and wild type mice were euthanized with carbon dioxide, and cell suspensions from pancreas and lung isolated.

[2] = tested on: wild-type mice; experiment: Fatty acid levels (GC/MS) in pancreas and lung cells of wild-type mice fed n-3 fatty acids; assay type: in vivo, mouse; conditions: for Change in phospholipid/membrane-bound AA (in words) / Change in phospholipid/membrane-bound DHA (in words): 40 mg/day for one week
Description: as §1
Cystic fibrosis (UNC strain) and wild type mice (12-20 grams body weight) were fed with a complete liquid enteral formulation (Peptamen™, Nestle Clinical Nutrition, […], Springville, Utah). DHA content in the Neuromins formulation was 100 mg per 500 mg of formulation. […]
as §2, with “Lung and acinar cells were isolated from a CF and a wild-type (WT) mouse fed with DHA formula.” left out
CFTR−/− mice were prepared as described in Example 1. Both CFTR−/− mice and wild type mice were euthanized with carbon dioxide, and cell suspensions from pancreas and lung isolated. Pancreatic acini were prepared by collagenase and mechanical dissociation (Bruzzone et al., (1985) Biochem. J. 226:621-624). A total lung cell suspension was prepared by first flushing contaminating blood by repeated injection of lung with Krebs Henseleit buffer (KHB). Tissue was then extensively minced and incubated for 30 minutes at 37° C. in 10 ml of KHB containing 1,000 units of collagenase (Worthington Biochemical, PA) 2,000 units of DNase, and 0.5 units of thermolysin (Sigma Chemical Co., St. Louis, Mo.). The resulting cell suspension was sedimented once through KHB containing 5% BSA and subsequently washed once in KHB, pH 7.4 containing 32 mM bicarbonate, 10 mM Hepes, and 0.5% BSA. Brain, kidney, and heart were removed and sonicated in 0.5 mL and 0.3M sucrose. A similar approach was used for duodenum and ileum except that mucosal scrapings were used for sonication.
Since the pancreas and the lung are the two primary organs affected in cystic fibrosis, AA and DHA levels in cell preparations of these organs and in wild-type and CFTR−/− mice were quantitated by GC/MS analysis. Lipids were extracted from cell suspensions, tissue homogenates, and blood plasma with 6 volumes of chloroform-methanol (2:1, v/v). The resulting emulsions were centrifuged at 600 g for 3 min and the lower phase containing the lipids was collected. This procedure was repeated twice and the lower phases from the two extractions combined. Aliquots of 30 μL of heptadecanoic acid (17:0) (1 mg/ml) were added to the extracts and used as an internal standard.

[3] = CF mice, 40 mg/day DHA (dose series, Table 5)
[4] = CF mouse-1, 40 mg/day DHA, day 30 to day 37
[5] = CF mouse-2, 40 mg/day DHA, day 24 to day 47
[6] = WT mouse fed Peptamen supplemented with DHA
[7] = CFTR (-/-) mice, 40 mg DPA per day for 7 days
[8] = wild-type mice, 40 mg DPA per day for 7 days
[9] = CFTR−/− mice, listed as 18:3n-3
[10] = wild-type mice, listed as 18:3n-3

## CC/C=C\C/C=C\C/C=C\C/C=C\C/C=C\C/C=C\CCC(=O)O [DHA, docosahexaenoic acid]
[1]; CF mice, 0.5 mg/day DHA
  20:4n-6 in pancreas: 315 nmoles per total extract
  22:4n-6 in pancreas: 8.3 nmoles per total extract
  22:6n-3 in pancreas: 39 nmoles per total extract
[1]; CF mice, 2 mg/day DHA
  20:4n-6 in pancreas: 233 nmoles per total extract
  22:4n-6 in pancreas: 7.2 nmoles per total extract
  22:6n-3 in pancreas: 43 nmoles per total extract
[1]; CF mice, 10 mg/day DHA
  20:4n-6 in pancreas: 177 nmoles per total extract
  22:4n-6 in pancreas: 3.7 nmoles per total extract
  22:6n-3 in pancreas: 67 nmoles per total extract
[1]; [3]
  20:4n-6 in pancreas: 67 nmoles per total extract
  22:4n-6 in pancreas: 0.4 nmoles per total extract
  22:6n-3 in pancreas: 148 nmoles per total extract
[1]; [4]
  20:4n-6 in lung: 75 nmoles per total extract
  20:4n-6 in pancreas: 144^1 nmoles per total extract
  22:4n-6 in lung: 12 nmoles per total extract
  22:4n-6 in pancreas: 1.5 nmoles per total extract
  22:6n-3 in lung: 167 nmoles per total extract
  22:6n-3 in pancreas: 167 nmoles per total extract
[1]; [5]
  20:4n-6 in lung: 60 nmoles per total extract
  20:4n-6 in pancreas: 67^1 nmoles per total extract and 67 nmoles per total extract
  22:4n-6 in lung: 4.1 nmoles per total extract
  22:4n-6 in pancreas: 0.4 nmoles per total extract
  22:6n-3 in lung: 222 nmoles per total extract
  22:6n-3 in pancreas: 148 nmoles per total extract
[1]
  DHA level in pancreas: 7.9 ± 1.5 nmol/mg
[1]; CFTR−/− mice, 40 mg DHA/day
  Increase of DHA levels in pancreas above wild-type levels: 3 fold
[2]; [6]
  20:4n-6 in lung: 28 nmoles per total extract
  20:4n-6 in pancreas: 82 nmoles per total extract
  22:4n-6 in lung: 2 nmoles per total extract
  22:4n-6 in pancreas: 1.6 nmoles per total extract
  22:6n-3 in lung: 227 nmoles per total extract
  22:6n-3 in pancreas: 200 nmoles per total extract

## CC/C=C\C/C=C\C/C=C\C/C=C\C/C=C\CCCCCC(=O)O [DPA, docosapentaenoic acid]
[1]; [7]
  20:4n-6 in lung: 5.8 ± 0.9 (17.5) nmoles of fatty acid per mg of protein
  20:4n-6 in pancreas: 5.1 ± 0.6^1 (13.3) nmoles of fatty acid per mg of protein
  20:5n-3 in lung: 15.6 ± 1.1 (0.1) nmoles of fatty acid per mg of protein
  22:6n-3 in lung: 5.5 ± 0.8(4.0) nmoles of fatty acid per mg of protein
[1]
  DHA level in pancreas: 3.7 ± 0.4 nmol/mg
[2]; [8]
  20:4n-6 in lung: 7.8 ± 0.9 (17.5) nmoles of fatty acid per mg of protein
  20:4n-6 in pancreas: 6.8 ± 0.6 (13.3) nmoles of fatty acid per mg of protein
  20:5n-3 in lung: 8.6 ± 0.8 (0.07) nmoles of fatty acid per mg of protein
  20:5n-3 in pancreas: 7.5 ± 0.8 (0.07) nmoles of fatty acid per mg of protein
  22:6n-3 in lung: 7.5 ± 0.8 (4.0) nmoles of fatty acid per mg of protein
  22:6n-3 in pancreas: 2.5 ± 0.4 (1.5) nmoles of fatty acid per mg of protein

## CC/C=C\C/C=C\C/C=C\CCCCCCCC(=O)O [LNA, α-linolenic acid, reference compound]
[1]
  DHA level in pancreas: 0.7 ± 0.07 nmol/mg
[1]; CFTR−/− mice
  Change in phospholipid/membrane-bound AA (in words): significant decrease; also recorded: four-fold decrease
  Change in phospholipid/membrane-bound DHA (in words): further decrease; also recorded: two-fold decrease
[1]; [9]
  Change in phospholipid/membrane-bound AA (in words): significant decrease
  Change in phospholipid/membrane-bound DHA (in words): further decrease
[2]; wild-type mice
  Change in phospholipid/membrane-bound AA (in words): decrease in membrane-bound AA
  Change in phospholipid/membrane-bound DHA (in words): increase in membrane-bound DHA
[2]; [10]
  Change in phospholipid/membrane-bound AA (in words): decrease in phospholipid-bound AA
  Change in phospholipid/membrane-bound DHA (in words): increase in phospholipid-bound DHA
